The values that follow are results of earlier work, collected in US20050113271A1, “Automatic dishwashing detergent with improved glass anti-corrosion properties II” (priority 2002, published 2005).

Like-named read-outs stand apart in the source and are kept apart here.

A word on the Solubility: it is the concentration that dissolves in the medium under given conditions. Turning to `[Cl-].[Cl-].[Zn+2]` [Zinc chloride], the Solubility (25° C.) was 4320 g/l (25° C.).
With Zinc acetylacetonate, under “20° C.”, the Solubility is given as 4 g/l (20° C.).
As for Zinc hydroxycarbonate, where the note is “20° C.”, the “Solubility (in words)” value was “Virtually insoluble (20° C.)”.
